Assay results from paper PMC12692291, “Development and In Vitro Evaluation of [^64Cu]Cu-NOTA-TP-PSMA, a Novel Radiotheranostic Agent Against Prostate Cancer” (International Journal of Molecular Sciences, 2025).
pEC50: −log10 of the molar value.

Experiments:
LNCaP cells [1] = experiment: Nuclear localization in LNCaP cells; format: cell-based
Experimental: (§1) To assess nuclear localization, LNCaP and HEK-293 cells were incubated with 1 MBq of [^64Cu]Cu-NOTA-TP-PSMA 1 for 24, 48, and 72 h. Nuclear extraction was performed following a previously established protocol. Following incubation, cells were lysed and fractionated using cytoskeletal buffer to isolate nuclear components. Nuclear and cytoplasmic radioactivity were measured using a HIDEX automatic gamma counter. Data were used to evaluate time-dependent nuclear accumulation of the tracer.

HEK-293 cells [2] = experiment: Efflux (retention) study in HEK-293 cells; format: cell-based, human; conditions: Table S3 second part (HEK-293)
Experimental: (§2) Efflux studies were conducted by incubating the cells with the compound for an initial period of 1 h, after which the incubation medium was replaced with fresh, compound-free medium. The retained intracellular radioactivity was then measured at various time points up to 24 h and expressed as the percentage of retention relative to the 0-h time point, defined as the time immediately after medium replacement.

HEK-293 cells [3] = experiment: Nuclear localization in HEK-293 cells; format: cell-based, human
Experimental: as §1

LNCaP cells [4] = format: cell-based; conditions: LNCaP, 24 h
Experimental: (§3) The cytotoxicity of compounds 1–3, ^natCu-NOTA-TP-PSMA, and cisplatin (platinum-based drug) were assessed with PrestoBlue, a resazurin-based method to assess mitochondrial function in LNCaP and HEK-293 cells at 24, 48, and 72 h. Effective concentration (EC50) values summarized in Table 3 were calculated from the dose–response curves of each compound (Figure S7).
(§4) Cytotoxicity was evaluated using a resazurin-based assay (PrestoBlue) in 96-well plates. LNCaP (15,000 cells/well) and HEK-293 (10,000 cells/well) were seeded and incubated for 72 h. Cells were then treated with serial dilutions of [^64Cu]Cu-NOTA-TP-PSMA and controls for 24, 48, or 72 h. After treatment, cells were rinsed with PBS and incubated with PrestoBlue reagent for 40 min. Fluorescence was measured at 570 nm (excitation) and 610 nm (emission). Background readings from blank wells were subtracted. Cell viability was calculated relative to untreated controls. IC50 values were determined using dose–response curves. Controls included [^64Cu]Cu-NOTA-TP, [^64Cu]Cu-NOTA-PSMA, ^natCu-NOTA-TP-PSMA, and cisplatin (0–500 µM in 0.9% saline). All assays were performed in triplicate and all data presented in Results are the average of three independent experiments. TP conjugates were dissolved in 1% DMSO and diluted in saline. Inhibitory concentration 50 (IC50) values were calculated to quantify the effectiveness of the compounds.

HEK-293 cells [5] = experiment: Cellular uptake and internalization in HEK-293 cells; format: cell-based, human
HEK-293 cells [6] = experiment: PrestoBlue cytotoxicity assay in HEK-293 cells; format: cell-based, human; conditions: consistently across time points; read-out: EC50 in HEK-293 cells
Experimental: as §3, §4

LNCaP cells [7] = experiment: Efflux (retention) study in LNCaP cells; format: cell-based; conditions: Table S3 first part (LNCaP)
Experimental: as §2

[8] = In vitro plasma stability and plasma protein binding; format: in vitro ADME; conditions: mouse plasma, 37 °C, 24 h
Experimental: The in vitro plasma stability of [^64Cu]Cu-NOTA-TP-PSMA 1 was evaluated by incubating […] of the radiolabeled compound (in 250 μL PBS) with 250 μL of freshly collected mouse plasma at 37 °C for up to 24 h. At predefined time points, (1 h, 4 h and 24 h) plasma proteins were precipitated by adding ethanol (1:1, v/v) in two successive steps, followed by vortexing (1 min) and centrifugation at 7000 rpm for 10 min. The resulting supernatant was subjected to ultracentrifugation to ensure complete removal of particulate matter.
For assessment of in vitro stability, the clarified supernatant was analyzed by radio-instant thin-layer chromatography (radio-iTLC) on C18 silica gel plates, using 0.1 M sodium citrate buffer (pH 5.5) as the mobile phase. Radiodetection was performed using an Instant Imager system (BioScan, Washington, DC, USA). Free [^64Cu]Cu(OAc)2 and intact [^64Cu]Cu-NOTA-TP-PSMA served as controls to facilitate peak identification. Under these chromatographic conditions, the radiolabeled complex remained at the origin, while free copper migrated with the solvent front (Figure S5).
To quantify the extent of protein binding, radioactivity in both the protein pellet and the supernatant was measured using a dose calibrator. The percentage of protein-bound radioactivity was calculated by comparing the activity in the precipitated fraction relative to the total recovered activity. […]

O=C(O)CC[C@H](NC(=O)N[C@@H](CCCCNC(=O)[C@@H](Cc1ccc2ccccc2c1)NC(=O)C1CCC(CNC(=O)C(CCCCNC(=O)c2cc3[n+]4c(c2)-c2cccc[n+]2[Pt-2]4([Cl])[n+]2ccccc2-3)NC(=O)COCCOCCNC(=O)CN2CCN3CCN(CC2)CC(=O)[O][64Cu][O]C(=O)C3)CC1)C(=O)O)C(=O)O (stereo partly drawn) [[^64Cu]Cu-NOTA-TP-PSMA 1]
nuclear uptake fold difference LNCaP vs HEK-293 (LNCaP cells [1]; 24 h): 84 fold
nuclear uptake in LNCaP cells (LNCaP cells [1]; 24 h): ~ 7 % CPM/10^6 cells
nuclear uptake fold difference LNCaP vs HEK-293 (LNCaP cells [1]; 48 h): 36 fold
nuclear uptake fold difference LNCaP vs HEK-293 (LNCaP cells [1]; 72 h): 1.8 fold
fold higher nuclear uptake than monomer 2 (LNCaP cells [1]; LNCaP, 24 h): ~ 13 fold
fold higher nuclear uptake than monomer 3 (LNCaP cells [1]; LNCaP, 24 h): ~ 16 fold
Nuclear uptake LNCaP (LNCaP cells [1]; Table S4, 24 h): 6.96 ± 1.97 %ID/10⁶ cells
Nuclear uptake LNCaP (LNCaP cells [1]; Table S4, 48 h): 5.66 ± 2.09 %ID/10⁶ cells
Nuclear uptake LNCaP (LNCaP cells [1]; Table S4, 72 h): 1.53 ± 0.38 %ID/10⁶ cells
Retained activity (HEK-293 cells [2]; 0 h after medium replacement): 100 ± 0 %CPM/106 cells
Retained activity (HEK-293 cells [2]; 1 h): 97.8 ± 4.3 %CPM/106 cells
Retained activity (HEK-293 cells [2]; 2 h): 62.6 ± 18.6 %CPM/106 cells
Retained activity (HEK-293 cells [2]; 4 h): 41.5 ± 9.9 %CPM/106 cells
Retained activity (HEK-293 cells [2]; 24 h): 17.1 ± 1.9 %CPM/106 cells
Nuclear uptake HEK-293 (HEK-293 cells [3]; Table S4, 24 h): 0.08 ± 0.05 %ID/10⁶ cells
Nuclear uptake HEK-293 (HEK-293 cells [3]; Table S4, 48 h): 0.15 ± 0.06 %ID/10⁶ cells
Nuclear uptake HEK-293 (HEK-293 cells [3]; Table S4, 72 h): 0.85 ± 0.84 %ID/10⁶ cells
fold more potent than monomer 2 (LNCaP cells [4]): ~ 5 fold
fold more potent than monomer 3 (LNCaP cells [4]): ~ 16 fold
Internalization (HEK-293 cells [5]; HEK-293, 24 h): 7.6 ± 1.7 % CPM/10^6 cells
Uptake (HEK-293 cells [5]; HEK-293, 24 h): 8.30 ± 1.63 %CPM/10^6 cells
Internalization HEK-293 (HEK-293 cells [5]; Table S2, 1 h): 4.46 ± 6.12 %ID/10⁶ cells
Uptake HEK-293 (HEK-293 cells [5]; Table S2, 1 h): 3.15 ± 0.53 %ID/10⁶ cells
Internalization HEK-293 (HEK-293 cells [5]; Table S2, 2 h): 3.34 ± 1.41 %ID/10⁶ cells
Uptake HEK-293 (HEK-293 cells [5]; Table S2, 2 h): 3.78 ± 0.95 %ID/10⁶ cells
Internalization HEK-293 (HEK-293 cells [5]; Table S2, 4 h): 3.26 ± 0.44 %ID/10⁶ cells
Uptake HEK-293 (HEK-293 cells [5]; Table S2, 4 h): 5.27 ± 1.00 %ID/10⁶ cells
Internalization HEK-293 (HEK-293 cells [5]; Table S2, 20 h): 6.12 ± 0.88 %ID/10⁶ cells
Uptake HEK-293 (HEK-293 cells [5]; Table S2, 20 h): 8.00 ± 2.25 %ID/10⁶ cells
Internalization HEK-293 (HEK-293 cells [5]; Table S2, 24 h): 7.65 ± 1.67 %ID/10⁶ cells
Uptake HEK-293 (HEK-293 cells [5]; Table S2, 24 h): 8.30 ± 1.63 %ID/10⁶ cells
pEC50 (HEK-293 cells [6]): < 6.60
Retained activity (LNCaP cells [7]; 0 h after medium replacement): 100 ± 0 %CPM/106 cells
Retained activity (LNCaP cells [7]; 1 h): 85.36 ± 11.10 %CPM/106 cells
Retained activity (LNCaP cells [7]; 2 h): 71.36 ± 13.48 %CPM/106 cells
Retained activity (LNCaP cells [7]; 4 h): 67.8 ± 9.3 %CPM/106 cells
Retained activity (LNCaP cells [7]; 24 h): 51.7 ± 9.4 %CPM/106 cells
free 64Cu2+ in protein-free supernatant (radio-iTLC) [8]: no evidence of free ^64Cu^2+
total radioactivity bound to plasma proteins [8]: approximately 91%
